System: monkey ES cell line transfected with an αMHC promoter-driven GFP gene
Test: Chemical screening: GFP fluorometry for cardiac differentiation of monkey ES cells
Assay type: cell-based, cynomolgus monkey
Conditions: for intensity of GFP fluorescence relative to control culture (KY02111 only, assigned to one): GFP fluorometry day 9; for increase of cardiac differentiation: alone or in combination with KY02111 (10 μM in late phase)
Description: Pluripotent stem cells were cultured in culture media to which the test compounds were added in different concentrations (0.3 μM, 1 μM, 3 μM and 10 μM) in early phase and late phase of differentiation of the cells. Cells from the culture were subjected to GFP fluorometry in accordance with the cardiac differentiation protocol shown in FIG. 1a. Besides the test compounds, 10 μM KY02111 was included in the culture media for the late phase differentiation. The intensity of GFP fluorescence determined in the cells from the control culture, which was cultured with no test compound other than KY02111, was assigned to one.
The scheme of chemical screening is illustrated in FIG. 1a. Compounds were screened for the ability of increasing GFP fluorescence compared with the control (KY02111 alone) using a monkey ES cell line transfected with an αMHC promoter-driven GFP gene (Minami et al., Cell Reports 2, 1448-1460, 2012, which is incorporated herein by reference). The ES cell line was derived from a monkey ES cell line (cynomolgus monkey CMK6.4) by transfecting the cells with a vector which expresses green fluorescent protein (GFP) under control by a promoter of α-MHC gene (a marker of cardiac differentiation). The cells were plated at 4.0×10^5 cells per well in 6 well plates (Asahi Glass/5816-006: Ezview culture plates) and cultured for nine days in an IMDM-based medium for cardiac differentiation (200 ml IMDM medium (Sigma 13390), with 50 ml calf serum (GIBCO 10099-141), 2.5 ml MEM non-essential amino acid solution (Sigma M7145), 2.5 ml penicillin-streptomycin ([…]), 2.5 ml 200 mM L-glutamine, 2 ul 2-mercaptoethanol (Sigma M7522), and 255 ul 5N NaOH). Each test compound was added to the medium at different concentrations in the early phase (day 0 to day 3) and the late phase (day 4 to day 7) of cardiac differentiation. Cells obtained from the culture on day 9 were subjected to GFP fluorometry with a Metamorph imaging system. […]

[1] = test compound 0.3 μM in Early phase (day 0 to day 3), 10 μM KY02111 in late phase
[2] = test compound 0.3 μM in Late phase (day 4 to day 7) with 10 μM KY02111
[3] = test compound 1 μM in Early phase (day 0 to day 3), 10 μM KY02111 in late phase
[4] = test compound 1 μM in Late phase (day 4 to day 7) with 10 μM KY02111
[5] = test compound 3 μM in Early phase (day 0 to day 3), 10 μM KY02111 in late phase
[6] = test compound 3 μM in Late phase (day 4 to day 7) with 10 μM KY02111
[7] = test compound 10 μM in Early phase (day 0 to day 3), 10 μM KY02111 in late phase
[8] = test compound 10 μM in Late phase (day 4 to day 7) with 10 μM KY02111

Compound | intensity of GFP fluorescence relative to control culture (KY02111 only, assigned to one) [1] | intensity of GFP fluorescence relative to control culture (KY02111 only, assigned to one) [2] | intensity of GFP fluorescence relative to control culture (KY02111 only, assigned to one) [3] | intensity of GFP fluorescence relative to control culture (KY02111 only, assigned to one) [4] | intensity of GFP fluorescence relative to control culture (KY02111 only, assigned to one) [5] | intensity of GFP fluorescence relative to control culture (KY02111 only, assigned to one) [6] | intensity of GFP fluorescence relative to control culture (KY02111 only, assigned to one) [7] | intensity of GFP fluorescence relative to control culture (KY02111 only, assigned to one) [8] | increase of cardiac differentiation (1 to 3 μM in late phase, FIG. 1e) | increase of cardiac differentiation (3 to 10 μM in early phase, FIG. 1b) | cardiac differentiation (screening conclusion) (under appropriate conditions, Table 1)
CCN(CC)CCCCNc1ncc2cc(-c3cc(OC)cc(OC)c3)c(NC(=O)NC(C)(C)C)nc2n1 [PD173074] | 0.02 | 0.23 | 0 | 0.08 | 0 | 0 | 0 | 0 |  |  | 
Cc1cc(Nc2ncc3c(n2)N(C)C(=O)N(c2cc(NC(=O)c4cccc(C(F)(F)F)c4)ccc2C)C3)n(C)n1 [SC-1] | 0.16 | 0.14 | 0 | 0 | 0 | 0 | 0 | 0 |  |  | 
CN(C)S(=O)(=O)c1ccc2c(c1)/C(=C/c1cc3c([nH]1)CCCC3)C(=O)N2 [SU6656] |  |  |  |  |  |  |  |  | two- to five-fold |  | 
OCCn1cc(-c2cnc3nnn(Cc4ccc5ncccc5c4)c3n2)cn1 [PF042I7903] | 1.02 | 1.09 | 0.99 | 1.3 | 0.91 | 0.82 | 0.62 | 0.78 |  |  | 
CC(=O)O[C@@]12C[C@@H](C)[C@@]3(O)[C@@H](C=C(CO)C[C@]4(O)C(=O)C(C)=C[C@@H]34)[C@@H]1C2(C)C [Prostratin] | 0.79 | 0.72 | 2.31 | 0.3 | 5.42 | 0.01 | 6.88 | 0 |  | three- to eight-fold | promoted
CNC(=O)c1ccccc1Sc1ccc2c(/C=C/c3ccccn3)n[nH]c2c1 [Axitinib] | 0.64 | 0.95 | 0.02 | 0.25 | 0 | 0.05 | 0 | 0 |  |  | 
O=c1[nH]c2ccccc2n1C1CCN(Cc2ccc(-c3nc4cc5[nH]cnc5cc4nc3-c3ccccc3)cc2)CC1 [Akt inhibitor 8] | 1.2 | 1.11 | 0.96 | 1.57 | 0.11 | 1.33 | 0 | 1.11 |  |  | 
COc1ccc2c(c1)c(C1=C(c3c[nH]c4ccccc34)C(=O)NC1=O)cn2CCCN(C)C [Go6983] | 1.1 | 1.12 | 0.98 | 0.62 | 2.31 | 0.45 | 2.12 | 0.13 |  |  | 
N#C/C(=C/c1ccc(O)c(O)c1)C(=O)NCc1ccccc1 [AG490] | 1.5 | 0.92 | 0.59 | 1 | 0.79 | 1.1 | 0.72 | 1.33 |  |  | 
NC(=O)c1ccc(-c2nc(-c3ccccn3)c(-c3ccc4c(c3)OCO4)[nH]2)cc1 [5B431542] | 0.61 | 1.2 | 0.1 | 1.52 | 0 | 1.44 | 0 | 1.58 |  |  | 
O=C1NC(=O)/C(=C\c2ccc3nccnc3c2)S1 [AS605240] | 0.65 | 1.31 | 0.84 | 0.9 | 0.32 | 1.22 | 0 | 0.55 |  |  | 
CC(C)(C)c1ccc(S(=O)(=O)Nc2ccc(-n3ccnc3)cc2)cc1 [ISCK03] | 0.08 | 1.23 | 0 | 0.8 | 0 | 0.79 | 0 | 0.88 |  |  | 
COc1ccc(-c2ccc3c(N4CCOCC4)nc(N4C[C@@H](C)O[C@@H](C)C4)nc3n2)cc1CO [K00063794] | 0.18 | 0.95 | 0.01 | 0.85 | 0 | 0.21 | 0 | 0 |  |  | 
COc1cc([C@@H]2c3cc4c(cc3[C@H](O)[C@H]3COC(=O)[C@@H]23)OCO4)cc(OC)c1OC [PPP] | 0.2 | 0.39 | 0 | 0.2 | 0 | 0 | 0 | 0 |  |  | 
